Ki data for 40 molecules are collected here from patent US20060063759A1, “Tricyclic steroid hormone nuclear receptor modulators” (priority 2002, published 2006).

The target of one test is T1, glucocorticoid receptor (Homo sapiens, UniProt P04150).
T1 construct: containing 50-200 ug of A549 cell extract and 1.86 nM [^3H]-dexamethasone; host or cells: A549 human lung epithelial cells (sonicated cell extract)
T1 sequence (P04150 1-777): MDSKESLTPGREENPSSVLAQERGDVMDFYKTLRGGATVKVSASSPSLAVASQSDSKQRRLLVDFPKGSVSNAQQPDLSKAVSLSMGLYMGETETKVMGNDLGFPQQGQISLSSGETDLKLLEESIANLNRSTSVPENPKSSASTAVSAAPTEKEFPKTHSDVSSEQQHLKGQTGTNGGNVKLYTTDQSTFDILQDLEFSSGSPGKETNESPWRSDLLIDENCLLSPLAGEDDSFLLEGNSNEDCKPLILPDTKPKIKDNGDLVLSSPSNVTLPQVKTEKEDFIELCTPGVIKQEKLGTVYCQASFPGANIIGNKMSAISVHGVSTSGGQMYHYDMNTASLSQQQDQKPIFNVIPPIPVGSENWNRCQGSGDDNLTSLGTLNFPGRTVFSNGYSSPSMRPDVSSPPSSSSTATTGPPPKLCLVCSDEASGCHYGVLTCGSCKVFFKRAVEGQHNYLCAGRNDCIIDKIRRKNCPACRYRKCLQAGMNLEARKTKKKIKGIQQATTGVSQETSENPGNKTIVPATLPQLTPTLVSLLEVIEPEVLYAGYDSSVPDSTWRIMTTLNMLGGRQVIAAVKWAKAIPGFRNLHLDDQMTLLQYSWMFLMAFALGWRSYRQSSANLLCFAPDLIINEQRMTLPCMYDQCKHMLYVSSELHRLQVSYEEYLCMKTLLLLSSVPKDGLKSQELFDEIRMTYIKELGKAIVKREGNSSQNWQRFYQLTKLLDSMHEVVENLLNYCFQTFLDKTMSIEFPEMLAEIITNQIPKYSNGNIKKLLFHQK
Kind of test: Glucocorticoid Receptor Binding Assay ([3H]-dexamethasone, A549 cell extract). The following applies: [3H]-dexamethasone binding, read-out: GR Ki. The method in brief: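 Displacement of [3H]-dexamethasone (1.86 nM) from glucocorticoid receptor in sonicated A549 lung epithelial cell extracts, 16 h at 4 °C, pH 7.2 molybdate-containing buffer. Bound radioactivity was scintillation-counted after charcoal/dextran stripping of free ligand.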

The target in another test is T2, human MR (Homo sapiens, UniProt P08235).
T2 construct: The full length human MR gene is cloned from a human kidney or human brain cDNA library; His tag from the pAcHLT vector (own knowledge); made in house; host or cells: Sf9 insect cells (baculovirus, pAcHLT transfer vector)
T2 sequence (P08235 1-984): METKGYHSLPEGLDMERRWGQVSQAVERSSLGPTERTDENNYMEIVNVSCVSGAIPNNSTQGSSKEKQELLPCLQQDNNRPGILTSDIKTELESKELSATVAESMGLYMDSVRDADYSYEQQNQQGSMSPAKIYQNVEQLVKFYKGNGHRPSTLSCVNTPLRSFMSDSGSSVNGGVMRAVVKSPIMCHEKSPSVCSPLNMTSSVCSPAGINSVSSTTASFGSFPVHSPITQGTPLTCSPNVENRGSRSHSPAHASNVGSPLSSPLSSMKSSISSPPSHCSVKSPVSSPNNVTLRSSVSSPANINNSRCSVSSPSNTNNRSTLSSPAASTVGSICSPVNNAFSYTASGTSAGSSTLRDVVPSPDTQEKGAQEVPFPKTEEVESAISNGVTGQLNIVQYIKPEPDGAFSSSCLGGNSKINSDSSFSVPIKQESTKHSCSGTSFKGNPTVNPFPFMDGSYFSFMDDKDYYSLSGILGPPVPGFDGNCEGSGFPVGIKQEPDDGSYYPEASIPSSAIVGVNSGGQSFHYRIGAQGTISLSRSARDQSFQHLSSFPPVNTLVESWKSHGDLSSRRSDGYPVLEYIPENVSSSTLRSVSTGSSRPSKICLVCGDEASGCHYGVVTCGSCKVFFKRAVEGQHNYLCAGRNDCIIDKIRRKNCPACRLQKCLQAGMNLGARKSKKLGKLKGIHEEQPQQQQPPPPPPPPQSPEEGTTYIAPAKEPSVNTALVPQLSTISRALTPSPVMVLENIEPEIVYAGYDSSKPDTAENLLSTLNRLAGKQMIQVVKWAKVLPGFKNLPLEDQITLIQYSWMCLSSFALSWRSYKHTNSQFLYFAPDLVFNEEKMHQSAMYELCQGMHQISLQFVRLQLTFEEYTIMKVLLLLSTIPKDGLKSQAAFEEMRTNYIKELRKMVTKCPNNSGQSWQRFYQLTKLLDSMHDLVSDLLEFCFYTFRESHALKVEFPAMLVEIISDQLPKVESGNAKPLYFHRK
Kind of test: Mineralocorticoid Receptor Binding Assay ([3H]-aldosterone). The following applies: [3H]-aldosterone binding, human MR expressed in Sf9 cells; read-out: MR Ki. The procedure, abridged:
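Receptor source: freeze-thaw lysate of baculovirus-infected Sf9 cells carrying full-length human MR, 20-25 μg protein. Incubation ~16 h at 4 °C with shaking, pH 7.5 buffer containing 30 mM sodium molybdate and 10% glycerol.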

In the case of `CS(=O)(=O)Nc1cccc(/C=C2/c3ccccc3COc3cc(F)ccc32)c1` [Example 629], the Ki at glucocorticoid receptor and on human MR was less than 500 nM each time.

Take `CS(=O)(=O)Nc1cccc(/C=C2\c3ccccc3COc3cc(F)ccc32)c1` [Example 630]: the Ki at glucocorticoid receptor and at human MR was less than 500 nM throughout.

Take `O=c1[nH]c2cc(/C=C3/c4ccccc4COc4cc(F)ccc43)ccc2o1` [Example 632]: the Ki on glucocorticoid receptor and on human MR was less than 500 nM each time.

`O=c1[nH]c2cc(/C=C3\c4ccccc4COc4cc(F)ccc43)ccc2o1` [Example 633]: the Ki at glucocorticoid receptor and on human MR was less than 500 nM throughout.

As to `Cn1c(=O)[nH]c2cc(/C=C3/c4ccccc4COc4cc(F)ccc43)ccc21` [Example 634], the Ki on glucocorticoid receptor and at human MR was less than 500 nM each time.

As for `Cn1c(=O)[nH]c2cc(/C=C3\c4ccccc4COc4cc(F)ccc43)ccc21` [Example 635], the Ki on glucocorticoid receptor was less than 1000 nM; at human MR, less than 500 nM.

On to `O=c1[nH]c2cc(/C=C3/c4ccccc4COc4cc(F)ccc43)ccc2s1` [Example 636], for which the Ki at glucocorticoid receptor and on human MR was less than 500 nM each time.

On to `O=c1[nH]c2cc(/C=C3\c4ccccc4COc4cc(F)ccc43)ccc2s1` [Example 637], for which the Ki on glucocorticoid receptor and on human MR was less than 500 nM each time.

On to `CC(C)n1c(=O)[nH]c2cc(/C=C3/c4ccccc4COc4cc(F)ccc43)ccc21` [Example 638], for which the figures for the Ki on glucocorticoid receptor and on human MR were less than 1000 nM and less than 500 nM, respectively.

As for `COc1ccc2c(c1)OCc1ccccc1C2=Cc1ccc2[nH]c(=O)[nH]c2c1` [Example 639], the Ki at glucocorticoid receptor is less than 10000 nM; on human MR, less than 500 nM.

`Fc1ccc2c(c1)OCc1ccccc1C2=Cc1cccc(C(F)F)c1` [Example 640]: the Ki at glucocorticoid receptor and at human MR was less than 500 nM throughout.

On to `O=c1[nH]c2ccc(/C=C3\c4ccc(Cl)cc4COc4ccccc43)cc2[nH]1` [Example 641], for which the Ki was less than 1000 nM on glucocorticoid receptor and less than 500 nM at human MR.

Regarding `O=c1[nH]c2ccc(/C=C3\c4ccccc4COc4c(F)cccc43)cc2[nH]1` [Example 642], the Ki on glucocorticoid receptor was less than 1000 nM; on human MR, less than 500 nM.

On to `O=c1[nH]c2ccc(/C=C3\c4ccccc4COc4cc(C(F)(F)F)ccc43)cc2[nH]1` [Example 643], for which the Ki was less than 10000 nM at glucocorticoid receptor and less than 500 nM at human MR.

With `O=c1[nH]c2ccc(C=C3c4ccc(F)cc4COc4cc(F)ccc43)cc2[nH]1` [Example 644], the Ki on glucocorticoid receptor is less than 1000 nM; on human MR it was less than 500 nM.

With `O=c1[nH]c2cc(/C=C3\c4ccccc4COc4cc(F)ccc43)ccc2n1CCN1CCCC1` [Example 646], the Ki is less than 1000 nM on glucocorticoid receptor and less than 500 nM on human MR.

`O=c1[nH]c2cc(/C=C3\c4ccccc4COc4cc(Cl)ccc43)ccc2n1CCN1CCOCC1` [Example 647]: the Ki at glucocorticoid receptor is less than 1000 nM; at human MR, less than 500 nM.

On to `COc1cccc(C=C2c3ccccc3CNc3ccccc32)c1` [Example 650], for which the Ki at glucocorticoid receptor and on human MR was less than 500 nM throughout.

Take `CN1C(=O)c2ccccc2C(=Cc2cccc(N)c2)c2ccccc21` [Example 651]: the Ki on glucocorticoid receptor was less than 1000 nM; at human MR it was less than 500 nM.

In the case of `CN1C(=O)c2ccccc2C(=Cc2cccc(NS(C)(=O)=O)c2)c2ccccc21` [Example 652], the Ki at glucocorticoid receptor was less than 10000 nM; at human MR it was less than 500 nM.

Regarding `CN1Cc2ccccc2C(=Cc2cccc(NS(C)(=O)=O)c2)c2ccccc21` [Example 653], the results for the Ki on glucocorticoid receptor and at human MR were less than 1000 nM and less than 500 nM, respectively.

For the molecule `COc1cccc(C=C2c3cc(Cl)ccc3NC(=O)c3ccccc32)c1` [Example 654], the Ki at glucocorticoid receptor and at human MR was less than 500 nM in each case.

On to `COc1cccc(C=C2c3ccccc3C(=O)N(C)c3ccc(Cl)cc32)c1` [Example 656], for which the Ki at glucocorticoid receptor and on human MR was less than 500 nM throughout.

On to `COC(=O)c1ccc2c(c1)/C(=C\c1cccc(NS(C)(=O)=O)c1)c1ccccc1CO2` [Example 659], for which the Ki was less than 10000 nM at glucocorticoid receptor and less than 1000 nM at human MR.

In the case of `COc1ccc2c(c1)OCc1ccccc1/C2=C/c1cccc(NS(C)(=O)=O)c1` [Example 660], the Ki on glucocorticoid receptor and on human MR was less than 500 nM in each case.

For the molecule `COc1ccc2c(c1)OCc1ccccc1/C2=C\c1cccc(NS(C)(=O)=O)c1` [Example 661], the Ki at glucocorticoid receptor and on human MR was less than 500 nM each time.

For the molecule `CS(=O)(=O)Nc1cccc(/C=C2/c3ccccc3COc3c(Cl)cccc32)c1` [Example 662], the Ki at glucocorticoid receptor and on human MR was less than 500 nM throughout.

Turning to `CS(=O)(=O)Nc1cccc(/C=C2\c3ccccc3COc3c(Cl)cccc32)c1` [Example 663], the Ki at glucocorticoid receptor and at human MR was less than 500 nM in each case.

For `CS(=O)(=O)Nc1cccc(/C=C2/c3ccccc3COc3cc(Cl)ccc32)c1` [Example 664], the Ki at glucocorticoid receptor and on human MR was less than 500 nM throughout.

Consider `CS(=O)(=O)Nc1cccc(/C=C2\c3ccccc3COc3cc(Cl)ccc32)c1` [Example 665], for which the Ki on glucocorticoid receptor and on human MR was less than 500 nM in each case.

With `CN(c1cccc(/C=C2/c3ccccc3COc3c(Cl)cccc32)c1)S(C)(=O)=O` [Example 666], the inhibitory constant (Ki) at glucocorticoid receptor and on human MR was less than 500 nM each time.

Turning to `CN(c1cccc(/C=C2\c3ccccc3COc3cc(Cl)ccc32)c1)S(C)(=O)=O` [Example 667], the Ki at glucocorticoid receptor was less than 10000 nM; on human MR it was less than 1000 nM.

`COc1cc2c(cc1Br)/C(=C/c1cccc(NS(C)(=O)=O)c1)c1ccccc1CO2` [Example 668]: the Ki was less than 1000 nM on glucocorticoid receptor and less than 500 nM at human MR.

Consider `COc1cccc2c1OCc1ccccc1/C2=C/c1cccc(NS(C)(=O)=O)c1` [Example 669], for which the Ki on glucocorticoid receptor and on human MR was less than 500 nM throughout.

In the case of `CS(=O)(=O)Nc1cccc(/C=C2\c3ccccc3COc3c(F)cccc32)c1` [Example 670], the Ki at glucocorticoid receptor and at human MR was less than 500 nM in each case.

In the case of `CS(=O)(=O)Nc1cccc(/C=C2/c3ccccc3COc3ccc(F)cc32)c1` [Example 671], the Ki on glucocorticoid receptor and at human MR was less than 500 nM in each case.

Consider `CS(=O)(=O)Nc1cccc(/C=C2\c3ccccc3COc3ccc(F)cc32)c1` [Example 672], for which the Ki at glucocorticoid receptor and at human MR was less than 500 nM throughout.

For the molecule `Cc1cccc2c1OCc1ccccc1/C2=C/c1cccc(NS(C)(=O)=O)c1` [Example 673], the Ki on glucocorticoid receptor and on human MR was less than 500 nM in each case.

For `Cc1cccc2c1OCc1ccccc1/C2=C\c1cccc(NS(C)(=O)=O)c1` [Example 674], the Ki at glucocorticoid receptor and at human MR was less than 500 nM throughout.

For `Cc1ccc2c(c1)OCc1ccccc1/C2=C/c1cccc(NS(C)(=O)=O)c1` [Example 675], the Ki at glucocorticoid receptor and at human MR was less than 500 nM in each case.

By Ki is commonly meant the dissociation constant of the complex between target and ligand, obtained from inhibition or displacement.
